The record followed here is patent US9415027B2, “Therapeutic agents” (Allergan, Inc., priority 2013, dated 2016).

The target of test [1] is T1, EP4 (Homo sapiens, UniProt P35408). As to the kind of experiment: EP4 binding study. As to conditions: read-out: EP4 data (EC50 in nM) KI. The protocol: (§1) Data from running binding and activity studies on the compounds of the invention were carried out as described in U.S. Pat. No. 7,427,685, the contents of which are incorporated herein by reference.
T1 sequence (P35408 whole entry): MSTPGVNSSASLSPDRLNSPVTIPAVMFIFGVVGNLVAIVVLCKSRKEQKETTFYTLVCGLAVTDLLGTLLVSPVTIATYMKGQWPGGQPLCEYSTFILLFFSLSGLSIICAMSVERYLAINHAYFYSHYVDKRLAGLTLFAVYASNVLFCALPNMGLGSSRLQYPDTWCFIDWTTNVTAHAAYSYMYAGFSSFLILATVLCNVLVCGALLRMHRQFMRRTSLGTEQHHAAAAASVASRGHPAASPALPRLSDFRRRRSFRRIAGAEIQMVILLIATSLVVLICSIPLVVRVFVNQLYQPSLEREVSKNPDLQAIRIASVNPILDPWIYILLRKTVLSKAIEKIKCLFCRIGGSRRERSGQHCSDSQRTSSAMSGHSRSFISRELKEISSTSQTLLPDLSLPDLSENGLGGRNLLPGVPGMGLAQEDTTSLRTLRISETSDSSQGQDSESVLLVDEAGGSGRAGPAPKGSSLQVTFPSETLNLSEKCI
The target of test [2] is T2, EP2 (Homo sapiens, UniProt P43116). As to the kind of experiment: EP2 binding study. As to conditions: read-out: EP2 Data (EC50 in nM) Ki. As for the experimental part: as §1
T2 sequence (P43116 whole entry): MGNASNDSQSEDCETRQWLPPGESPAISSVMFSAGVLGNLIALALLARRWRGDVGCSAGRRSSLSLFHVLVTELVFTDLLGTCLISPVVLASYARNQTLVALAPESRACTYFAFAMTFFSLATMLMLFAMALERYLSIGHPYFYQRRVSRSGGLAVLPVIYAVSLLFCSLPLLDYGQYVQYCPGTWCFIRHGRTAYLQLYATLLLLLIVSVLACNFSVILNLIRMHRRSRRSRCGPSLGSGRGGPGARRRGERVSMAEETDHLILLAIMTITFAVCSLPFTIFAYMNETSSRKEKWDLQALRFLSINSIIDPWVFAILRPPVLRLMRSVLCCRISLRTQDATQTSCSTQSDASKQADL
Test [3] addresses T2, EP2. As to the kind of experiment: EP2 cAMP activity study. In kind it is cell-based. The protocol:
as §1

Test [4] addresses T1, EP4. Nature of the test: EP4 cAMP activity study. In kind it is cell-based. The protocol:
as §1

The target in a further test is T3, hEP3A (Homo sapiens, UniProt P43115).
T3 sequence (P43115 1-390): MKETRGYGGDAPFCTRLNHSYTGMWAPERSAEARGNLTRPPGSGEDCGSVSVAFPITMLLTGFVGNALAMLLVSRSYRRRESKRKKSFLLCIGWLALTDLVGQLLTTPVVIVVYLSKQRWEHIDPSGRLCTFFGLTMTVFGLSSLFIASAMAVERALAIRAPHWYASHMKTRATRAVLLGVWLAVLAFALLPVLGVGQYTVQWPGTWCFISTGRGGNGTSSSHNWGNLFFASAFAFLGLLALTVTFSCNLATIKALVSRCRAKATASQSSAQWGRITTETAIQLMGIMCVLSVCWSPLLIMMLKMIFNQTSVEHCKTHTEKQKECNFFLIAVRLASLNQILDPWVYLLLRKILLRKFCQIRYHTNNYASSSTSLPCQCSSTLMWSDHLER
Nature of the test: Other receptors activity, hEP3A. In kind it is cell-based. As for the experimental part:
as §1

Take `O=C(O)c1ccc(CC2CCc3c(cccc3-c3cccc(C(F)(F)F)c3)C2=O)cc1` (stereo not drawn) [Example 1, 4-((1-Oxo-5-(3-(trifluoromethyl)phenyl)-1,2,3,4-tetrahydronaphthalen-2-yl)methyl)benzoic acid]: the Ki on EP4 [1] worked out at 149 nM; on EP2 [2], 70 nM. Moreover, the EC50 on EP2 [3] was found to be 6 nM; on EP4 [4], 196 nM.
The matching figures for `O=C(O)c1ccc(CC2Cc3c(cccc3-c3cccc(C(F)(F)F)c3)C2=O)cc1` (stereo not drawn) [Example 2, 4-((1-Oxo-4-(3-(trifluoromethyl)phenyl)-2,3-dihydro-1H-inden-2-yl)methyl)benzoic acid]: 18 nM, 56 nM, 1 nM and 108 nM.
For `O=C(O)c1ccc(CC2Cc3c(cccc3-c3cccc(Cl)c3)C2=O)cc1` (stereo not drawn) [Example 3, 4-((4-(3-Chlorophenyl)-1-oxo-2,3-dihydro-1H-inden-2-yl)methyl)benzoic acid], the inhibition constant Ki worked out at 954 nM at EP4 [1] and 130 nM at EP2 [2]. Moreover, the EC50 at EP2 [3] was 26 nM; on EP4 [4] it was 1070 nM.
With `O=C(O)c1ccc(CC2Cc3c(cccc3-c3cccc4ccccc34)C2=O)cc1` (stereo not drawn) [Example 4, 4-((4-(Naphthalen-1-yl)-1-oxo-2,3-dihydro-1H-inden-2-yl)methyl)benzoic acid], the figures for the Ki on EP4 [1] and at EP2 [2] were 1280 nM and 2080 nM, respectively. Moreover, the midpoint of the response at EP4 [4], the EC50, lay at 1240 nM.
With `O=C(O)c1ccc(CC2Cc3c(cccc3-c3ccc4ccccc4c3)C2=O)cc1` (stereo not drawn) [Example 5, 4-((4-(Naphthalen-2-yl)-1-oxo-2,3-dihydro-1H-inden-2-yl)methyl)benzoic acid], the Ki at EP4 [1] came out at 1190 nM; on EP2 [2], 61 nM. The values for the EC50 on EP2 [3] and at EP4 [4] were 40 nM and more than 10000 nM, respectively.
For the compound `O=C(O)c1ccc(CC2Cc3c(cccc3-c3ccc(C(F)(F)F)cc3)C2=O)cc1` (stereo not drawn) [Example 6, 4-((1-Oxo-4-(4-(trifluoromethyl)phenyl)-2,3-dihydro-1H-inden-2-yl)methyl)benzoic acid], the Ki at EP4 [1] is 4450 nM; on EP2 [2] it was 338 nM. Also, at EP4 [4], the EC50 is more than 10000 nM.
Take `O=C(O)c1ccc(CC2Cc3c(cccc3-c3ccccc3C(F)(F)F)C2=O)cc1` (stereo not drawn) [Example 7, 4-((1-Oxo-4-(2-(trifluoromethyl)phenyl)-2,3-dihydro-1H-inden-2-yl)methyl)benzoic acid]: the Ki at EP4 [1] is 7090 nM; on EP2 [2] it was more than 10000 nM. Also, the EC50 at EP4 [4] is more than 10000 nM.
For `COc1cc(-c2cccc3c2CC(Cc2ccc(C(=O)O)cc2)C3=O)cc(C(F)(F)F)c1` (stereo not drawn) [Example 8, 4-((4-(3-Methoxy-5-(trifluoromethyl)phenyl)-1-oxo-2,3-dihydro-1H-inden-2-yl)methyl)benzoic acid], the Ki on EP4 [1] is 889 nM; at EP2 [2] it was 21 nM. Further, the EC50 turned out to be 11 nM on EP2 [3] and 1050 nM on EP4 [4].
On the same counts, the results for `O=C(O)c1ccc(CC2Cc3c(cccc3-c3cc(C(F)(F)F)cc(C(F)(F)F)c3)C2=O)cc1` (stereo not drawn) [Example 9, 4-((4-(3,5-Bis(trifluoromethyl)phenyl)-1-oxo-2,3-dihydro-1H-inden-2-yl)methyl)benzoic acid] are 1780 nM, 9 nM, 5 nM and 1630 nM.
On to `O=C(O)c1ccc(CC2Cc3c(cccc3-c3ccc(Cl)c(C(F)(F)F)c3)C2=O)cc1` (stereo not drawn) [Example 10, 4-((4-(4-Chloro-3-(trifluoromethyl)phenyl)-1-oxo-2,3-dihydro-1H-inden-2-yl)methyl)benzoic acid], for which the values for the Ki on EP4 [1] and at EP2 [2] were 1350 nM and 3 nM, respectively. Also, the figures for the EC50 at EP2 [3] and on EP4 [4] were 1 nM and 1090 nM, respectively.
For the compound `COc1cccc(-c2cccc3c2CC(Cc2ccc(C(=O)O)cc2)C3=O)c1` (stereo not drawn) [Example 11, 4-((4-(3-Methoxyphenyl)-1-oxo-2,3-dihydro-1H-inden-2-yl)methyl)benzoic acid], the Ki was 525 nM on EP4 [1] and 333 nM at EP2 [2]. The compound further came in with an EC50 at EP4 [4] of 186 nM.
Regarding `Cc1cccc(-c2cccc3c2CC(Cc2ccc(C(=O)O)cc2)C3=O)c1` (stereo not drawn) [Example 12, 4-((1-Oxo-4-(m-tolyl)-2,3-dihydro-1H-inden-2-yl)methyl)benzoic acid], the Ki turned out to be 610 nM at EP4 [1] and 191 nM at EP2 [2]. The EC50 stood at 217 nM at EP2 [3] and 1170 nM at EP4 [4].
Consider `O=C(O)c1ccc(CC2Cc3c(cccc3-c3ccccc3)C2=O)cc1` (stereo not drawn) [Example 13, 4-((1-Oxo-4-phenyl-2,3-dihydro-1H-inden-2-yl)methyl)benzoic acid], for which the Ki on EP4 [1] worked out at 1010 nM; at EP2 [2], 1140 nM. In addition, the 50% effective concentration (EC50) at EP4 [4] came out at 2440 nM.
For the compound `O=C(O)c1ccc(CC2CCc3c(cccc3-c3cccc(C(F)(F)F)c3)C2=O)s1` (stereo not drawn) [Example 14, 5-((1-Oxo-5-(3-(trifluoromethyl)phenyl)-1,2,3,4-tetrahydronaphthalen-2-yl)methyl)thiophene-2-carboxylic acid], the values for the Ki on EP4 [1] and at EP2 [2] were 1070 nM and 1390 nM, respectively. Further, the results for the EC50 on EP2 [3] and on EP4 [4] were 79 nM and 341 nM, respectively.
For the compound `O=C(O)c1ccc(CC2Cc3c(cccc3-c3cccc(C(F)(F)F)c3)C2=O)s1` (stereo not drawn) [Example 15, 5-((1-Oxo-4-(3-(trifluoromethyl)phenyl)-2,3-dihydro-1H-inden-2-yl)methyl)thiophene-2-carboxylic acid], the Ki came out at 137 nM at EP4 [1] and 131 nM at EP2 [2]. The EC50 at hEP3A is more than 10000 nM; on EP2 [3] it was 11 nM; on EP4 [4], 54 nM.
Turning to `O=C(O)c1ccc(CC2Cc3c(cccc3-c3cccc(Cl)c3)C2=O)s1` (stereo not drawn) [Example 16, 5-((4-(3-Chlorophenyl)-1-oxo-2,3-dihydro-1H-inden-2-yl)methyl)thiophene-2-carboxylic acid], the Ki on EP4 [1] came to 505 nM; on EP2 [2], 199 nM. The EC50 at EP2 [3] is 62 nM; at EP4 [4], 300 nM.
As for `O=C(O)c1cc(CC2Cc3c(cccc3-c3cccc(C(F)(F)F)c3)C2=O)cs1` (stereo not drawn) [Example 17, 4-((1-Oxo-4-(3-(trifluoromethyl)phenyl)-2,3-dihydro-1H-inden-2-yl)methyl)thiophene-2-carboxylic acid], the Ki on EP4 [1] stood at 7 nM; at EP2 [2], 674 nM. Moreover, the EC50 was 695 nM on EP2 [3] and more than 10000 nM at EP4 [4].
The matching figures for `O=C(O)c1csc(CC2Cc3c(cccc3-c3cccc(C(F)(F)F)c3)C2=O)c1` (stereo not drawn) [Example 18, 5-((1-Oxo-4-(3-(trifluoromethyl)phenyl)-2,3-dihydro-1H-inden-2-yl)methyl)thiophene-3-carboxylic acid]: 5 nM, 96 nM, 179 nM and 4970 nM.
Take `O=C(O)c1cccc(CC2Cc3c(cccc3-c3cccc(C(F)(F)F)c3)C2=O)c1` (stereo not drawn) [Example 19, 3-((1-Oxo-4-(3-(trifluoromethyl)phenyl)-2,3-dihydro-1H-inden-2-yl)methyl)benzoic acid]: the values for the Ki at EP4 [1] and on EP2 [2] were 2740 nM and 6760 nM, respectively. For the same compound, the EC50 on EP4 [4] stood at 1470 nM.
On the same counts, the results for `COc1ccc(-c2cccc(C(F)(F)F)c2)c2c1C(=O)C(Cc1ccc(C(=O)O)cc1)C2` (stereo not drawn) [Example 20, 4-((7-Methoxy-1-oxo-4-(3-(trifluoromethyl)phenyl)-2,3-dihydro-1H-inden-2-yl)methyl)benzoic acid] are 954 nM, 7360 nM and more than 10000 nM.
`COc1cc(OC)cc(-c2cccc3c2CC(Cc2ccc(C(=O)O)cc2)C3=O)c1` (stereo not drawn) [Example 21]: the Ki at EP4 [1] came to 486 nM; at EP2 [2], 241 nM. In addition, the figures for the EC50 on EP2 [3] and at EP4 [4] were 79 nM and 874 nM, respectively.

The term Ki denotes a measure of affinity in units of concentration, obtained from inhibition or displacement. In general, EC50 refers to the concentration at which the effect is half-maximal. Read a high EC50 as a need for much substance.
